Experimental data as given in US8604085B2, “Bupropion hydrobromide polymorphs” (Valeant International Bermuda, priority 2008, dated 2013).
Entries after “also recorded” stand apart in the source; their conditions may differ. Structures can show the parent of a compound that is named as a salt.

Assays:
Format in all cases: physicochemical
[1] = Stability tests on bupropion hydrobromide polymorphs in humidity chamber (XRD pattern); details: 40° C., 85% R.H., open sample-holder
Description: Stability tests were performed on bupropion hydrobromide Form I, Form II, Form III, Form IV, Form V and Form VI. The powders were stored in a controlled atmosphere (85% R.H.) at 40° C. Form I and Form II were stored for 7 and 30 days respectively, while the other forms were stored only for 30 days. The sample was positioned on the sample-holder which was introduced, without any cover, into the humidity chamber at 40° C. The layer of the sample on the sample-holder was about 0.5 cm.
In addition, stability tests were performed on bupropion hydrobromide Form VII.

[2] = TGA and DSC characterization; details: for TGA (mass change): successive mass-loss steps listed per polymorph; for DSC (onset ° C.): successive thermal events listed per polymorph
Description: The PXRD diffraction patterns were obtained on X-ray powder diffraction PANalytical X′pert Pro equipped with X′Celerator, in a measurement range between 3 and 40 2 theta. All the DSC experiments were performed with a DSC 7 Perkin Elmer instrument in a temperature range between 25° C. and 250° C. with a heating rate of 10° C./min.
All the TGA experiments were conducted with a TGA 7 Perkin Elmer instrument in a temperature range between 39° C. and 310° C. with a heating rate of 10° C./min.
PXRD, DSC, TGA and IR analyses were obtained for Bupropion Hydrobromide Polymorph Form I, Form II, Form III, Form IV, Form V, Form VI, and Form VII. PXRD analyses were obtained for the amorphous form. With respect to the PXRD analyses, the Peak List is shown for Form I, Form II, Form III, Form IV, Form V, Form VI, Form VII and the amorphous form in Table 56, Table 57, Table 58, Table 59, Table 60, Table 61, Table 62 and Table 63 respectively.

[3] = Slurry experiments at room temperature (thermodynamic stability of crystal forms, X-ray diffraction); details: for Slurry Result: 7 days, room temperature, form by XRD
Description: Slurry experiments of Form I were performed at room temperature to verify if Form I is the thermodynamic crystal form. 0.050 g of Form I was suspended in 2 ml of solvent and stirred for 1 week. The sample was filtered and analyzed by X-ray diffraction. In the large majority of the experiments, Form I converts into Form II. […] By 1,4-Dioxane, a new crystal form was obtained named Form V. See Table 46 for the Form I slurries results (7 days).
Further slurry experiments of Form I were performed at room temperature using 0.5 g of powder in 10 mL of solvent to confirm the results obtained even in large scale.
0.050 g of Form I were suspended in 2 ml of solvent and stirred at room temperature for 4 weeks (30 days). The sample was filtered and analyzed by X-ray diffraction. By 1,4-Dioxane, Form V was obtained. By tetrahydrofuran, Form II and Form VII were obtained. […] See Table 47 for the Form I slurries results (30 days).
(§1) Slurry experiments of mixtures of Form I and Form II were performed at room temperature to verify their thermodynamic stability. 0.040 g of Form I+0.040 g of Form II were suspended in 4 ml of solvent and stirred for 1 week (7 days). The samples were filtered and analyzed by X-ray diffraction. By 1,4-Dioxane, Form V was obtained. […] See Table 48 for the Form I+Form II slurries results (7 days).
as §1, with “II” for “I”, “III” for “II”, “II+0.040” for “I+0.040”, “49” for “48”, “II+Form III” for “I+Form II”
as §1, with “II” for “I”, “IV” for “II”, “II+0.040” for “I+0.040”, “50” for “48”, “II+Form IV” for “I+Form II”
as §1, with “II” for “I”, “V” for “II”, “II+0.040” for “I+0.040”, “51” for “48”, “II+Form V” for “I+Form II”
as §1, with “II” for “I”, “VI” for “II”, “II+0.040” for “I+0.040”, “52” for “48”, “II+Form VI” for “I+Form II”
as §1, with “II” for “I”, “VII” for “II”, “II+0.040” for “I+0.040”, “53” for “48”, “II+Form VII” for “I+Form II”

[4] = Slurries in 2-propanol at room temperature, 50° C. and 80° C.; details: form by XRD
Description: 0.050 g of Form I were suspended in 4 ml of solvent and stirred at room temperature. for 1 week (7 days). The sample was filtered and analyzed by X-ray diffraction.
0.040 g of Form I+0.040 g of Form II were suspended in 4 ml of solvent and stirred at room temperature for 1 week (7 days). The sample was filtered and analyzed by X-ray diffraction experiments.
0.050 g of Form II were suspended in 4 ml of solvent and stirred at room temperature for 1 week (7 days). The sample was filtered and analyzed by X-ray diffraction experiments.
0.050 g of Form I were suspended in 4 ml of solvent and stirred at 50° C. for 1 Week (7 days). The sample was filtered and analyzed by X-ray diffraction experiments.
0.040 g of Form I+0.040 g of Form II were suspended in 4 ml of solvent and stirred at 50° C. for 1 week (7 days). The sample was filtered and analyzed by X-ray diffraction experiments.
Form I+Form II were suspended in solvent and stirred at 80° C. for 14 hours. The sample was filtered and analyzed by X-ray diffraction experiments. […] Slurry in 2-propanol at 80° C. is an atypical experiment because if we consider the boiling point of the solvent, it could be defined as a combination between a slurry and precipitation experiment. Form I was obtained during the precipitation from supersaturated solution by 2-propanol. However the high temperature and the reflux produce the energetic conditions needed by the stable crystal form (Form II) to convert to the metastable crystal form (Form I).

[5] = Stability tests on bupropion hydrobromide polymorphs in humidity chamber (XRD pattern); details: 28 days; 25° C.; 75% R.H.
[6] = Release of bupropion base from the salt; details: 150 mg of the salt tested
Description: It was previously observed that when 150 mg of bupropion HCl was tested for its release of bupropion, the base value that was released was 130 mg. However, when 150 mg of bupropion HBr was tested, the base value released was only 112 mg. Thus, the amount of bupropion HBr had to be increased in order to increase the base value from 112 mg to 130 mg, which was the target.

[7] = room temperature, 1 week (7 days)

For `Br.CC(NC(C)(C)C)C(=O)c1cccc(Cl)c1` (centres unmarked) [Form III], the “XRD pattern / crystal form after storage” value ([1]; 30 days) was “converted into Form I”.

In the case of `Br.CC(NC(C)(C)C)C(=O)c1cccc(Cl)c1` (single isomer, unassigned) [Form VI], the “XRD pattern / crystal form after storage” value ([1]; 30 days) is reported as “converted into a mixture of Form I+Form II”, the “TGA (mass change)” value [2] is reported as −97.68% and the “DSC (onset ° C.)” value [2] is reported as 235 °C.

With `Br.CC(NC(C)(C)C)C(=O)c1cccc(Cl)c1` (centres unmarked) [Form IV] the “XRD pattern / crystal form after storage” value ([1]; 30 days) was “converted into Form I”.

With `Br.CC(NC(C)(C)C)C(=O)c1cccc(Cl)c1` (centres unmarked) [Form V] the “XRD pattern / crystal form after storage” value ([1]; 30 days) was “converted into Form I” and the “DSC (onset ° C.)” value [2] was 237.85 °C.

In the case of `Br.CC(NC(C)(C)C)C(=O)c1cccc(Cl)c1` (centres unmarked) [Form I + Form II], the “Slurry Result” value ([3]; 1,2-Dimethoxy Ethane) is reported as “Form II”, the “Slurry Result” value ([3]; 1,4-Dioxane) is reported as “Form V” and the “Slurry Result” value ([3]; Acetone) is reported as “Form II”. For the same compound, the “Slurry Result” value ([3]; Diethyl ether) was “Form II”, the “Slurry Result” value ([3]; Ethyl acetate) was “Form II” and the “Slurry Result” value ([3]; n-Hexan) was “Form II”. For the same compound, the “Slurry Result” value ([3]; p-Xylene) was “Form II”, the “Slurry result in 2-propanol” value ([4]; 50° C., 1 week (7 days)) was “Form II was obtained” and the “Slurry result in 2-propanol” value [4, 7] was “Form II was obtained”.

With `Br.CC(NC(C)(C)C)C(=O)c1cccc(Cl)c1` (centres unmarked) [Form II + Form III] the “Slurry Result” value ([3]; 1,2-Dimethoxy Ethane) was “Form II”, the “Slurry Result” value ([3]; 1,4-Dioxane) was “Form V” and the “Slurry Result” value ([3]; Acetone) was “Form II”. The “Slurry Result” value ([3]; Diethyl ether) was “Form II”, the “Slurry Result” value ([3]; Ethyl acetate) was “Form II” and the “Slurry Result” value ([3]; n-Hexan) was “Form II”. For the same compound, the “Slurry Result” value ([3]; p-Xylene) was “Form II”.

With `Br.CC(NC(C)(C)C)C(=O)c1cccc(Cl)c1` (single isomer, unassigned) [Form II] the “Thermodynamic stability of the crystal form as shown by slurry experiments” value [3] was “thermodynamically stable crystal form; also recorded: thermodynamic stable form”, the “Slurry result in 2-propanol” value ([4]; mixture Form I+Form II, 80° C., 14 hours) was “converted to Form I” and the “Slurry result in 2-propanol” value [4, 7] was “Form II was obtained”. For the same compound, the “XRD pattern / crystal form after storage” value ([1]; 7 days) was “did not show modification”, the “XRD pattern / crystal form after storage” value ([1]; 30 days) was “did not show modification” and the “TGA (mass change)” value [2] was −93.35%.

In the case of `Br.CC(NC(C)(C)C)C(=O)c1cccc(Cl)c1` (centres unmarked) [Form VII], the “DSC (onset ° C.)” value [2] is reported as 268.7 °C and the “XRD pattern / crystal form after storage” value [5] is reported as “stable form”.

With `CC(NC(C)(C)C)C(=O)c1cccc(Cl)c1` (centres unmarked) [bupropion HCl, reference compound] the “base value that was released” value [6] was 130 mg.
